# Measured values from publication PMC10982999, “Structure-Guided Design and Optimization of Covalent VHL-Targeted Sulfonyl Fluoride PROTACs” (Journal of Medicinal Chemistry, 2024).
# Where two headings read alike, the source gives them in different places.
# How the values were obtained:
# [1] = target: T1, BRD4 (HEK293 HiBiT-BRD4 Cln3 cells) (Homo sapiens, UniProt O60885); experiment: BRD4 HiBiT degradation assay; type: cell-based
# T1 construct: GSK; host or cells: HEK293 HiBiT-BRD4 Cln3
# Method: Figure 3 (A) Structure of BRD-SF2. […] BRD4 and loading control GAPDH levels were visualized by Western blotting. […] (D) HEK293 HiBiT-BRD4 Cln3 cells were treated with epoxomicin (1 μM) for 3 h, followed by the respective PROTAC or VHL-SF2 dose-dependently (75–0.01 μM) for 18 h. […] (E) HEK293 HiBiT-BRD4 Cln3 cells were treated with MLN4924 (1 μM) for 3 h, followed by the respective PROTAC or VHL-SF2 dose-dependently (75–0.01 μM) for 18 h. […] (F) Structure of AR-VHL-SF2 and AR2-VHL-SF2. […] The data the show mean ± SEM (n = 3).
# Cellular BRD4/AR HiBiT assay
# The HiBiT tagged cells were seeded at 10,000 cells per well in a 384-well plate (Thermo Scientific, 164610) at 25 µL per well in DMEM media containing 10% FBS and incubated overnight. Compounds were dispensed using D300e Digital Dispenser (HP) and normalized to 0.1% DMSO. Cells were pre-treated with Epoxomicin or MLN4924 for 3 h before treatment or directly with the PROTAC degraders for 18 or 24 h. Nano -Glo HiBiT lytic detection assay was performed as described in the manufacturer protocol (Promega). 25 µL of premixed detection reagent was added to each well of the 384 well assay plate and incubated for 15 min on an orbital shaker (at 600 RPM), and luminescence was read using a PHERAstar FS plate reader (BMG Labtech). Corresponding background RLU values were subtracted from DMSO control values and the percentage of protein (%) of were then calculated against […]
# DMSO-treated controls. […]
# [2] = target: T2, endogenous BRD4 in HEK293 cells (Homo sapiens, UniProt O60885); experiment: Endogenous BRD4 degradation, Western blot; type: cell-based; conditions: 18 h, read-out: BRD4 long isoform Dmax
# T2 construct: endogenous in cells; host or cells: HEK293
# [3] = target: T1, BRD4 (HEK293 HiBiT-BRD4 Cln3 cells); type: cell-based; conditions: 5 h treatment, PBS washing, 24 h recovery with excess VH032 (50 μM) vs standard treatment 29 h; from AUC of residual BRD4 long isoform
# Method: To further investigate the potential advantage of a covalent VHL ligand, we performed a head-to-head comparison of BRD-SF2 and MZ-1 in a washout experiment.
# BRD4 and loading control Tubulin levels were visualized by Western blotting. […] BRD4 and loading control Tubulin levels were visualized by Western blotting.
# with BRD-SF2 and MZ1, followed by 3 cycles of PBS wash, where media was aspirated, and
# PBS used to gently wash the cells before allowing 24 h recovery incubation in DMEM media
# The control plate was run as
# described above, but no washout was applied making the total incubation time 29 h (5 h + 24
# h). The assay was performed and analysed as described above.
# BRD4-HiBiT HEK293T cells = conditions: 18 h, 70-0.01 μM
# [4] = target: T3, recombinant human VCB (VHL protein with elongin C and elongin B) (Homo sapiens, UniProt P40337); experiment: Gel-based streptavidin shift assay (anti-VHL Western blot); type: binding; conditions: 10 μM probe, 2 h incubation at room temperature
# T3 construct: human VHL (UniPort entry P40337, residues 1 -213); 6xHis followed by TEV site (N, cleaved yes); made in house; host or cells: E. coli One Shot BL21(DE3)
# Method: (§1) To assess the ability of VHL-SF1 to covalently modify VHL, we initially developed a streptavidin shift assay in which we exposed recombinant human VCB, a stable complex of VHL protein with elongin C and elongin B, to VHL-SF1-Biotin. VHL biotinylation could then be directly quantified by the apparent shift in molecular weight observed when the sample was mixed with streptavidin and analyzed by an anti-VHL Western blot (Figure S2).[20] Through this assay, we concluded that 10 μM VHL-SF1-Biotin modified 32% VHL following 2 h of incubation at room temperature, which was further confirmed to be concentration-dependent with respect to the probe (Figure S3).
# Figure S2. (A) Structure of VHL-SF-1-Biotin. (B) Structure of VHL-SF-2-Biotin. (C - E) Gel-based streptavidin shift assay of VHL-SF1-Biotin, and VHL-SF2-Biotin. VCB protein was pre-treated with DMSO, VHL-SF1-Biotin (10 μM) or VHL-SF2-Biotin (10 μM) for 2 h at room temperature prior to addition of streptavidin (10 μM, 10 min) at room temperature, after which protein was resolved on SDS-PAGE and visualised by VHL western blotting. (F) Quantification of VHL levels from western blot.
# Docking analysis with Molecular Operating Environment (MOE)
# Molecular modelling studies were conducted using the software Molecular Operating Environment 2019.01. […]
# VCB protein = target: T4, VCB protein (Homo sapiens, UniProt P40337); experiment: Gel-based labelling of VHL (Neutravidin HRP blot); type: binding; conditions: 2 h at room temperature, 1-100 µM probe
# T4 construct: human VHL (UniPort entry P40337, residues 1 -213); 6xHis followed by TEV site (N, cleaved yes); made in house; host or cells: E. coli One Shot BL21(DE3)
# Method: as §1
# Figure S3. (A) Gel-based VHL labelling of VHL-SF1-Biotin, and (B) VHL-SF2-Biotin. […]
# Figure S4. Dose-response of VHL-SF1 following a 2 h pre-incubation in the presence of VCB and FAM-conjugated HIF1α-derived peptide, assessed by fluorescence polarization. […]
# VCB (11.1 mg/ mL) was diluted with PBS pH 7.4 (2 µg/ mL). […] 10 µL of each sample was loaded onto the gel and the bands were quantified […]
# HEK293T cells were plated into two 6 well plates (in 1 mL media 10% FBS low glucose media) at a cell density of 1.0 x 10^6 cells/well 24 h before treatment. […] Proteins were separated by SDS -PAGE and further analyzed by immunoblotting. […]
Compound,"Dmax ([1]; HEK293, read-out: Dmax (BRD4 degradation)) [%]","BRD4 depletion in presence of NEDDylation inhibitor MLN4924 ([1]; MLN4924 1 μM 3 h pretreatment, then compound 18 h)","BRD4 depletion in presence of proteasome inhibitor epoxomicin ([1]; epoxomicin 1 μM 3 h pretreatment, then compound 18 h)",DC50 ([1]; read-out: BRD4 DC50) [µM],"DC50 ([1]; read-out: DC50 (BRD4 degradation), 18 h incubation) [µM]",Dmax [2] [%],relative decrease in degradation activity after washout [3] [%],cytotoxicity (CellTiter-Glo) (BRD4-HiBiT HEK293T cells),"VHL modified (VHL biotinylation, streptavidin shift) [4] [%]",VHL labelling with respect to probe concentration (VCB protein)
"COCC(COC)n1c(-c2cc(C)c(=O)n(C)c2)nc2cc(C3CCN(C(=O)COCCOCCOCCNC(=O)C[C@H](NC(=O)[C@@H]4C[C@@H](S(=O)(=O)F)CN4C(=O)[C@@H](c4cc(C)no4)C(C)C)c4ccc(-c5scnc5C)cc4)CC3)ccc21 [BRD-SF2, (3R,5S)-5-(((S)-1-(4-(1-(1,3-Dimethoxypropan-2-yl)-2-(1,5-dimethyl-6-oxo-1,6-dihydropyridin-3-yl)-1H-benzo[d]imidazole-5-yl)piperidin-1-yl)-15-(4-(4-methylthiazol-5-yl)phenyl)-1,13-dioxo-3,6,9-trioxa-12-azapentadecan-15-yl)carbamoyl)-1-((R)-3-methyl-2-(3-methylisoxazol-5-yl)butanoyl)pyrrolidine-3-sulfonyl fluoride]",60,not depleted,not depleted,17,17.2,50,27,no evidence of cytotoxicity,,
"(3R,5S)-1-((S)-2-(tert-Butyl)-4,16-dioxo-20-((3aS,4R,6aR)-2-oxohexahydro-1H-thieno[3,4-d]imidazole-4-yl)-6,9,12-trioxa-3,15-diazaicosanoyl)-5-((4-(4-methylthiazol-5-yl)benzyl)carbamoyl-)pyrrolidine-3-sulfonyl fluoride [VHL-SF1-Biotin]",,,,,,,,,32,concentration-dependent
